Reference: the METLIN SMRT retention time set (Domingo-Almenara et al. 2019)
One block for each compound: values may come before it.

Test: gradient 5% acetonitrile 3 min, to 50% in 2 min, to 85% in 15 min, held 3 min, 100 µL/min
Settings: column: Zorbax Extend-C18 2.1 x 50 mm; eluents: water / acetonitrile, 0.1% formic acid
Outline: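 Retention times of pure standards were taken from adduct peaks that were selected by computer and manually inspected. Over 3 months, mixtures of ~100 molecules were run by HPLC–quadrupole time-of-flight mass spectrometry in positive and negative ionization mode. The Zorbax Extend-C18 column (2.1 × 50 mm, 1.8 μm) ran at 100 μL/min in water and acetonitrile, each containing 0.1% formic acid, with 40 μL dead volume and 900 μL dwell volume.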

RP-LC retention time: 560 s
Structure (SMILES): CCC(C(=O)NCCCN1CCN(C)CC1)n1c2ccccc2c2cnn(C)c(=O)c21 (centres undefined)

RP-LC retention time: 934 s
Structure (SMILES): Cc1ccc(OCc2nc3c4ccccc4ncn3n2)cc1

RP-LC retention time: 607 s
Structure (SMILES): CCOc1cccc2c1OC1(C)CC2NC(=O)N1c1cccc(C(=O)NCc2ccccn2)c1 (centres undefined)

RP-LC retention time: 673 s
Structure (SMILES): COc1cccc(CC(=O)NC2CCN(c3cc(-c4ccccc4)[nH]n3)C2)c1 (centres undefined)

RP-LC retention time: 742 s
Structure (SMILES): Clc1ccc(-c2ccc(CNCc3ccncc3)o2)c(Cl)c1

RP-LC retention time: 652 s
Structure (SMILES): c1ccc(OCc2nc(-c3ccc4c(c3)ncn4CCN3CCCCC3)no2)cc1

RP-LC retention time: 727 s
Structure (SMILES): COC(=O)c1cn(CC(=O)Nc2cc(F)ccc2F)c2nc(C)ccc2c1=O

RP-LC retention time: 971 s
Structure (SMILES): Cc1ccc(S(=O)(=O)N(C)C)cc1-c1nnc(-c2ccccc2)o1

RP-LC retention time: 794 s
Structure (SMILES): CCN(C(=O)C1CCN(S(=O)(=O)c2ccc3c(c2)NC(=O)CO3)CC1)c1ccccc1

RP-LC retention time: 879 s
Structure (SMILES): N#Cc1ccsc1NC(=O)CCSc1ccccc1

RP-LC retention time: 831 s
Structure (SMILES): COc1ccc(NC(=O)CCc2cccc3[nH]ccc23)c(OC)c1

RP-LC retention time: 876 s
Structure (SMILES): Cc1cc(NC(=O)C2CCN(S(=O)(=O)c3cn(C(C)C)cn3)CC2)ccc1Br

RP-LC retention time: 664 s
Structure (SMILES): Cc1cc(C(=O)NC2CC2)c2cc(Br)ccc2n1

RP-LC retention time: 714 s
Structure (SMILES): COc1ccccc1CNc1c(-c2cc(OC)c(OC)c(OC)c2)nc2ncccn12

RP-LC retention time: 859 s
Structure (SMILES): O=C(C1CCN(S(=O)(=O)c2ccc(-c3noc(C4CC4)n3)cc2)CC1)N1CCCC1

RP-LC retention time: 698 s
Structure (SMILES): CCOC1CCN(C(=O)NC2CCCC2)CC1

RP-LC retention time: 733 s
Structure (SMILES): Cc1nn(CC(=O)N2CCOCC2)c(=O)c2c(-n3cccc3)n(-c3cccc(F)c3)nc12

RP-LC retention time: 814 s
Structure (SMILES): Cc1ccc(NC(=O)N2CCC3(C2)C(=O)N(C)c2ccccc23)cc1 (centres undefined)

RP-LC retention time: 853 s
Structure (SMILES): CCCn1c(=O)c(C)nc2cc(-c3noc(CNS(=O)(=O)c4ccccc4)n3)ccc21

RP-LC retention time: 722 s
Structure (SMILES): Cc1cccc(-c2nc(C)c3c(n2)N(Cc2cccnc2)C(=O)CC3)c1

RP-LC retention time: 642 s
Structure (SMILES): O=C(Nc1cc(Cl)cc(Cl)c1)N1CCc2nc[nH]c2C1

RP-LC retention time: 747 s
Structure (SMILES): COc1ccc(C(C)NC(=O)C2C(=O)NC3(C)CC2c2ccccc2O3)cc1 (centres undefined)

RP-LC retention time: 622 s
Structure (SMILES): CN(C)c1ccc(CN2C(=O)CN(S(C)(=O)=O)CC2(C)C(=O)NCc2ccccc2)cc1 (centres undefined)

RP-LC retention time: 997 s
Structure (SMILES): O=S(=O)(c1cccs1)N1CCN(c2nc3c(F)cc(F)cc3s2)CC1

RP-LC retention time: 906 s
Structure (SMILES): Cc1ccc(-n2c(=O)c3c(cc(C)n3C)n(CC(=O)Nc3ccc(C)c(C)c3)c2=O)cc1

RP-LC retention time: 1180 s
Structure (SMILES): Cn1nc(-c2nnc(-c3ccc(F)cc3)o2)c2c1CCN(S(=O)(=O)c1ccc(C(C)(C)C)cc1)C2

RP-LC retention time: 937 s
Structure (SMILES): CCc1cccc(NS(=O)(=O)c2cn(CC)c3ncccc23)c1

RP-LC retention time: 550 s
Structure (SMILES): CN(C)c1ccc(CNC(=O)C2CCN(S(=O)(=O)c3cn(C)cn3)CC2)cc1

RP-LC retention time: 626 s
Structure (SMILES): Cc1ccc(NC(=O)C2CCN(S(=O)(=O)c3cn(C(C)C)cn3)CC2)nc1

RP-LC retention time: 711 s
Structure (SMILES): O=C(Cc1cccs1)N1CCC[C@H]1c1nc(-c2ccccc2)n[nH]1

RP-LC retention time: 787 s
Structure (SMILES): CC(=O)N1CCc2cc(S(=O)(=O)C(C)CC(=O)N3CCN(c4ccccc4)CC3)ccc21 (centres undefined)

RP-LC retention time: 680 s
Structure (SMILES): CNC(=O)c1cc(Cc2ccc3nc(Nc4cccc(C(F)(F)F)c4)[nH]c3c2)ccn1

RP-LC retention time: 915 s
Structure (SMILES): CCC(C)(C)C(=O)NC1CCN(C2=NS(=O)(=O)C(c3cccc(Cl)c3)=C2C)CC1

RP-LC retention time: 723 s
Structure (SMILES): O=C(Nc1cccc(Cl)c1F)N1CCCC(Cn2c(C3CC3)nc3cccnc32)C1 (centres undefined)

RP-LC retention time: 862 s
Structure (SMILES): COC(=O)C1=CN(c2ccc(C)cc2)c2ccccc2S1(=O)=O

RP-LC retention time: 774 s
Structure (SMILES): COc1ccc(Cl)cc1NC(=O)C1CC(=O)N(c2ccc3c(c2)CCN3C(C)=O)C1 (centres undefined)

RP-LC retention time: 707 s
Structure (SMILES): CCN(CC)CCNC(=O)c1cn(C)nc1S(=O)(=O)N1CCN(c2ccc(Cl)cc2)CC1

RP-LC retention time: 656 s
Structure (SMILES): CCOc1ccc(NC(=O)NCc2nc(-c3ccc(OCC)cc3)oc2C)cc1

RP-LC retention time: 807 s
Structure (SMILES): Cc1ccc(-n2nc(C)c(S(=O)(=O)N3CCC(C(=O)NCC4CCCO4)CC3)c2C)cc1 (centres undefined)

RP-LC retention time: 1150 s
Structure (SMILES): CCn1ccc2c(cc(C(=O)Nc3cc(Cl)ccc3OC)n2C)c1=O

RP-LC retention time: 552 s
Structure (SMILES): c1cc(-c2nc(CC3CCCNC3)no2)ccn1 (centres undefined)

RP-LC retention time: 671 s
Structure (SMILES): O=C(NC[C@H](O)CO)c1ccncc1Nc1ccc(I)cc1F

RP-LC retention time: 627 s
Structure (SMILES): CC(C)Oc1ccccc1CN1CCC2(CC1)CC(C)(O)CCO2 (centres undefined)

RP-LC retention time: 1090 s
Structure (SMILES): Fc1ccc(-c2nc(-c3cn(Cc4ccccc4)nn3)no2)cc1

RP-LC retention time: 1090 s
Structure (SMILES): Cc1nc2nc(-c3ccc(C(C)(C)C)cc3)nn2c(C)c1CC(=O)N1CCC(C)CC1

RP-LC retention time: 856 s
Structure (SMILES): CN(C(=O)CN1C(=O)C(O)(c2cccc(F)c2)c2ccccc21)c1ccccc1 (centres undefined)

RP-LC retention time: 919 s
Structure (SMILES): Cc1ccc(-c2nocc2CCC(=O)NCc2ccc(F)cc2)cc1

RP-LC retention time: 856 s
Structure (SMILES): CCOc1ccccc1NC(=O)NCCCn1c(C(F)(F)F)nc2cccnc21

RP-LC retention time: 889 s
Structure (SMILES): COc1cccc(NS(=O)(=O)c2ccc3c(c2)C(=O)N(C)c2ncccc2O3)c1

Second part, the compound before the results:

Structure (SMILES): Cc1nc(C)c(-c2nnc(NC(=O)C3CC(=O)N(c4ccc(F)cc4)C3)o2)s1 (centres undefined)
RP-LC retention time: 652 s

Structure (SMILES): C[C@H]1CN(C(=O)c2c(F)cccc2F)C[C@@H]1c1nc(-c2ccncc2)no1
RP-LC retention time: 798 s

Structure (SMILES): O=C(NCc1ccc2c(c1)OCO2)C(=O)NCC1CCCO1 (centres undefined)
RP-LC retention time: 639 s

Structure (SMILES): CN1CCCCCCN(C(=O)c2cccn2C)[C@H]2CCC[C@H]2C1=O
RP-LC retention time: 816 s

Structure (SMILES): COc1cc(Cl)ccc1-c1nc(-c2ccc3c(c2)oc(=O)n3C)no1
RP-LC retention time: 1060 s

Structure (SMILES): Cc1cc2c(cc1S(=O)(=O)N1CCCC1C(=O)Nc1ccc(F)c(Cl)c1)OCC(=O)N2 (centres undefined)
RP-LC retention time: 965 s

Structure (SMILES): Cc1nc(N2CCN(c3ccccn3)CC2)nc2c1C(=O)CC(C)C2 (centres undefined)
RP-LC retention time: 652 s

Structure (SMILES): COc1ccc(Cc2nc(-c3ccc4c(c3)nnn4CCC(=O)N3CCCC3)no2)cc1
RP-LC retention time: 839 s

Structure (SMILES): COc1ccc(-c2cn3c(CC(=O)Nc4cccc(C#N)c4)csc3n2)cc1OC
RP-LC retention time: 704 s

Structure (SMILES): COc1ccc(C2Cn3nnc(-c4nc(-c5ccc(OCc6ccccc6)cc5)no4)c3CO2)cc1 (centres undefined)
RP-LC retention time: 1340 s

Structure (SMILES): O=C(CN1C(=O)CCc2cc(Br)ccc21)NCCc1ccccc1
RP-LC retention time: 870 s

Structure (SMILES): CN(CC1(C)CCOCC1)C(=O)c1ccc2ccccc2n1
RP-LC retention time: 727 s

Structure (SMILES): CCN1C(=O)COc2ccc(-c3csc(NC(=O)c4ccc(Br)cc4)n3)cc21
RP-LC retention time: 1080 s

Structure (SMILES): CCC1Oc2ccc(S(=O)(=O)N3CCC(C(=O)Nc4ccc(C(C)C)cc4)CC3)cc2NC1=O (centres undefined)
RP-LC retention time: 1000 s

Structure (SMILES): O=C(CCC1CCCCC1)Nc1cccc(-c2cn3cccnc3n2)c1
RP-LC retention time: 823 s

Structure (SMILES): Cc1cc(C)cc(Nc2nc3ccncc3n(C(C)C)c2=O)c1
RP-LC retention time: 745 s

Structure (SMILES): Cc1ccc(S(=O)(=O)c2cnc(N3CCN(c4cc(Cl)ccc4C)CC3)nc2N)cc1C
RP-LC retention time: 1420 s

Structure (SMILES): CC(C)NC(=O)N(C)Cc1ccsc1
RP-LC retention time: 730 s

Structure (SMILES): Cc1nc2cc(N3CCCC(C(=O)NC4CCCCC4)C3)cnc2nc1C (centres undefined)
RP-LC retention time: 723 s

Structure (SMILES): CCOc1ccc(S(=O)(=O)NC2CCN(c3ccc(=O)[nH]n3)C2)cc1 (centres undefined)
RP-LC retention time: 671 s

Structure (SMILES): CS(=O)(=O)N1CCCc2cc(C(=O)N3CCOCC3)ccc21
RP-LC retention time: 654 s

Structure (SMILES): Cc1ccc(-c2nc(NCc3cccnc3)ncc2C(=O)O)cc1
RP-LC retention time: 587 s

Structure (SMILES): O=C(CCC1CCCC1)N1CCN(C(=O)c2cc(-c3cccnc3)n[nH]2)CC1
RP-LC retention time: 652 s

Structure (SMILES): COc1cc2c(cc1OC)C(C(=O)NCCCN1CCC(C)CC1)C1c3ccccc3CCN1C2=O (centres undefined)
RP-LC retention time: 624 s

Structure (SMILES): CCNC(=O)c1ccc(-n2nc(C)cc2-c2ccccc2)cc1
RP-LC retention time: 749 s

Structure (SMILES): CC(C)CC(=O)N1CCc2c([nH]c3ccccc23)C12C(=O)N(C)c1ccccc12 (centres undefined)
RP-LC retention time: 951 s

Structure (SMILES): Cc1ccc(S(=O)(=O)N2CC(c3noc(C)n3)C3(CCOCC3)C2)c(C)c1 (centres undefined)
RP-LC retention time: 888 s

Structure (SMILES): COc1ccc(N2CCN(C(=O)c3csc(C(=O)NC4CC4)n3)CC2)cc1
RP-LC retention time: 700 s

Structure (SMILES): CN(C)c1cccc(C(=O)Nc2cc(-c3cccs3)no2)c1
RP-LC retention time: 970 s

Structure (SMILES): CCOC(=O)N1CCN(C(c2ccc(F)cc2)c2sc3ncnn3c2O)CC1 (centres undefined)
RP-LC retention time: 667 s

Structure (SMILES): CC1Oc2ccccc2N(Cc2nc(-c3ccc4c(c3)OCO4)no2)C1=O (centres undefined)
RP-LC retention time: 1010 s

Structure (SMILES): COc1ccc(CC2C(=O)Nc3ccc(Br)cc32)cc1 (centres undefined)
RP-LC retention time: 882 s

Structure (SMILES): CCn1cc(-c2nc(C(=O)Nc3ccc(C)c(F)c3)cs2)c2cccnc21
RP-LC retention time: 987 s

Structure (SMILES): COc1ccc(CCC(=O)NC(CC(C)C)C(=O)Nc2nc3ccccc3[nH]2)cc1 (centres undefined)
RP-LC retention time: 745 s

Structure (SMILES): CC(=O)Nc1ccc2c(c1)CN(C(=O)c1ccccc1F)C(C(=O)N1CCCC1)C2 (centres undefined)
RP-LC retention time: 646 s

Structure (SMILES): Cn1cc(S(=O)(=O)N2CCC(C(=O)NC3CCCCCC3)CC2)cc1C(=O)N1CCCC1
RP-LC retention time: 770 s

Structure (SMILES): O=C(c1c(F)cccc1F)N1CCc2nc(-c3ccccc3)ncc2C1
RP-LC retention time: 909 s

Structure (SMILES): Cc1ccc(C)c(CNC(=O)Cc2csc3nc(-c4ccc(C)c(C)c4)cn23)c1
RP-LC retention time: 930 s

Structure (SMILES): CC(C)c1cccc2sc(NC(=O)C3CCCN(S(C)(=O)=O)C3)nc12 (centres undefined)
RP-LC retention time: 965 s

Structure (SMILES): O=C(NCCN1CCCCC1)c1cc2n(n1)CCCN(Cc1ccc(Cl)cc1)C2=O
RP-LC retention time: 642 s
